In ChEMBL document CHEMBL2331203, “Optimization of inhibitors of the tyrosine kinase EphB4. 2. Cellular potency improvement and binding mode validation by X-ray crystallography” (J Med Chem, 2013):

Assays:
[1] = target: T1, Ephrin type-B receptor 4 (Homo sapiens) (UniProt P54760); experiment: Inhibition of EphB4 (unknown origin) transfected in CHO cells using Z'-LYTE TYR-1 peptide as substrate at 10 uM after 2 hrs by FRET assay; format: cell-based
T1 sequence (whole entry): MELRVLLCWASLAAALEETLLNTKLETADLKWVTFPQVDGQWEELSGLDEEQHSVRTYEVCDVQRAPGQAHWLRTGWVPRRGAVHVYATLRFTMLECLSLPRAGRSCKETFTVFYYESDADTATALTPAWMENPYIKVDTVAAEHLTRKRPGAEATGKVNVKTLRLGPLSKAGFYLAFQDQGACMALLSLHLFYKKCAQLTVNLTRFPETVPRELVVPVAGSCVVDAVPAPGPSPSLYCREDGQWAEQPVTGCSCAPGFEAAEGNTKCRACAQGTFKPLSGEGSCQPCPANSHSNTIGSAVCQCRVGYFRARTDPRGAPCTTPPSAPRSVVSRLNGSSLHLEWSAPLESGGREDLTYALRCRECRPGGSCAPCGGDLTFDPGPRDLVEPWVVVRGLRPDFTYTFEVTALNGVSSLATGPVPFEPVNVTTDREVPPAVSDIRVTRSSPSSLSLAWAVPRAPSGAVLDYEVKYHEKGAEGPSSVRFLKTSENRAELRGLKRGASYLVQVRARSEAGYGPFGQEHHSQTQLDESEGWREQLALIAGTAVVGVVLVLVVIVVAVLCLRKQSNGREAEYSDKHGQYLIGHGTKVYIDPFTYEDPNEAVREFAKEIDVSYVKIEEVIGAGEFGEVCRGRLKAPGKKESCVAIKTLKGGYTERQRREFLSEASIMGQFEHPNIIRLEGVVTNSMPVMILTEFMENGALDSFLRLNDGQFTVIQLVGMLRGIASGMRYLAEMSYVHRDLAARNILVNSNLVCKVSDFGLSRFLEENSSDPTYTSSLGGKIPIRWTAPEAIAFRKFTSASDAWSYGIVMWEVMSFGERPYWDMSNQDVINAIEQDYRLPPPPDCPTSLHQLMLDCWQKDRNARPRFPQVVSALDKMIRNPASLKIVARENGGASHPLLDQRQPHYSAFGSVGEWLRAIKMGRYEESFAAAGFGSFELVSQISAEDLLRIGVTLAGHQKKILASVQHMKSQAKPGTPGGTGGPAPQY

DU-145 = experiment: Cytotoxicity against human PRXF DU145 cells after 4 days by propidium iodide staining; details: DU-145, 96 h
[2] = Cytotoxicity against human RXF 393NL cells after 4 days by propidium iodide staining; details: 96 h
[3] = Cytotoxicity against human GXF251L cells after 4 days by propidium iodide staining; details: GXF 251L, 96 h
[4] = Cytotoxicity against human PAXF 1657L cells after 4 days by propidium iodide staining; details: 96 h
[5] = Cytotoxicity against human LXFA 983L cells after 4 days by propidium iodide staining; details: 96 h
[6] = Cytotoxicity against human CXF 1103L cells after 4 days by propidium iodide staining; details: 96 h
[7] = target: Tyrosine-protein kinase Lck (Homo sapiens, UniProt P06239); experiment: Inhibition of Lck (unknown origin) using [gamma-33P]ATP after 30 mins by radiometric assay
Sequence of Tyrosine-protein kinase Lck (P06239 whole entry): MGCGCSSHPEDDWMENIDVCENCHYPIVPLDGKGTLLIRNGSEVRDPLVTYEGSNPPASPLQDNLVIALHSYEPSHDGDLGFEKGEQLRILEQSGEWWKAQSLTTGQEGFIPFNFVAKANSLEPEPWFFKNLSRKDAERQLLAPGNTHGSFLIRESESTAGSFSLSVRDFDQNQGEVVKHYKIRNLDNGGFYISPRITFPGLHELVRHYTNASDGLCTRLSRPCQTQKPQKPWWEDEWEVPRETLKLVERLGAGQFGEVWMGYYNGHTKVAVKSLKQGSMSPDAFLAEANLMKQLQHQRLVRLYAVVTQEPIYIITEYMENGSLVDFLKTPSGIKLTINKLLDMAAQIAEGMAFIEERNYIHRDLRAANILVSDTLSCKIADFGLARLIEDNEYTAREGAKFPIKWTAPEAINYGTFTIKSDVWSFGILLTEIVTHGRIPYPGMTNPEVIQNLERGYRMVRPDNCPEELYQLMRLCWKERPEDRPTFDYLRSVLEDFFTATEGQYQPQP

[8] = Permeability from apical to basolateral side in human Caco2 cells assessed as compound recovery after 2 hrs by LC-MS/MS analysis; format: ADME, cell-based; details: Caco-2, read-out: permeability
[9] = Permeability from basolateral to apical side in human Caco2 cells assessed as compound recovery after 2 hrs by LC-MS/MS analysis; format: ADME, cell-based; details: Caco-2, read-out: permeability
[10] = Apparent permeability from basolateral to apical side in human Caco2 cells after 2 hrs by LC-MS/MS analysis; format: ADME, cell-based; details: Caco-2
[11] = Apparent permeability from apical to basolateral side in human Caco2 cells after 2 hrs by LC-MS/MS analysis; format: ADME, cell-based; details: Caco-2
Ephrin type-B receptor 4 = target: T2, Ephrin type-B receptor 4 (Homo sapiens, UniProt P54760)
T2 sequence (P54760 whole entry): T1 sequence (whole entry)
Description: Inhibition of human myc-tagged full length EphB4 expressed in MEF cells assessed as inhibition of ephrinB2-Fc-induced autophosphorylation incubated for 90 mins prior to ephrinB2-Fc-induction measured after 2 hrs by sandwich ELISA

Hs-578T = experiment: Cytotoxicity against human Hs578T cells by SRB assay; format: functional
[12] = target: Tyrosine-protein kinase ABL1 (Homo sapiens, UniProt P00519)
Sequence of Tyrosine-protein kinase ABL1 (P00519 whole entry): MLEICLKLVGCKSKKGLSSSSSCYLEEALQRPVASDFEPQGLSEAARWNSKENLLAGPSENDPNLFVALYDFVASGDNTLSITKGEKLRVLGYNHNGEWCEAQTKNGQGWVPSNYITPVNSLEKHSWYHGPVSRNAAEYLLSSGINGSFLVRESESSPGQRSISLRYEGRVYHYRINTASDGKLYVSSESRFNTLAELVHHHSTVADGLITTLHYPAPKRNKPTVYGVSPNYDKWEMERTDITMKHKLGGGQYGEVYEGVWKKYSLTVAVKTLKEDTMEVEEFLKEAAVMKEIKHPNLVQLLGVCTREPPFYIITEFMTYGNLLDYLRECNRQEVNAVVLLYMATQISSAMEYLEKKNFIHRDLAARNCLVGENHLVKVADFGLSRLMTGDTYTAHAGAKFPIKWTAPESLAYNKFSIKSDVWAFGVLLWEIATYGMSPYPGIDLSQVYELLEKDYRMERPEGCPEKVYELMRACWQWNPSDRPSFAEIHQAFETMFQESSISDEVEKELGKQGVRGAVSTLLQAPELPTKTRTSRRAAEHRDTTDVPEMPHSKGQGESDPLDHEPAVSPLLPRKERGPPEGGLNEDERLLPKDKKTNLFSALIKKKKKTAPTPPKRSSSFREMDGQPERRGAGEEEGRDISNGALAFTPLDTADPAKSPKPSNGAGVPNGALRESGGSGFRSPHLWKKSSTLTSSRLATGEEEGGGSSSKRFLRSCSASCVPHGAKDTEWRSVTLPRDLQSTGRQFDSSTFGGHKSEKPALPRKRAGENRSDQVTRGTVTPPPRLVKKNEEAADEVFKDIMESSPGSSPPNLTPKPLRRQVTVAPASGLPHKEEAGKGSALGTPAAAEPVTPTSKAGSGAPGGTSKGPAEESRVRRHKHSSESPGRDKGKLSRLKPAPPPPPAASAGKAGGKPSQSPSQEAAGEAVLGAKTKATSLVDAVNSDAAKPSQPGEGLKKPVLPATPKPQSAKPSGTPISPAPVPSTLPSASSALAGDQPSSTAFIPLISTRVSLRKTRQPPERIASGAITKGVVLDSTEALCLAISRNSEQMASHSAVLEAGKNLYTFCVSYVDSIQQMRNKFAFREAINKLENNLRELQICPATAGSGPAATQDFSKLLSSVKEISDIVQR
Description: Inhibition of Abl (unknown origin) using [gamma-33P]ATP after 30 mins by radiometric assay

in vitro = details: human, Caco-2
Description: Efflux ratio of apparent permeability from basolateral to apical side to apical to basolateral side in human Caco2 cells

K562 = experiment: Cytotoxicity against human K562 cells by SRB assay; format: functional
SNB-75 = experiment: Cytotoxicity against human SNB75 cells by SRB assay; format: functional
[13] = target: Proto-oncogene tyrosine-protein kinase Src (Homo sapiens, UniProt P12931)
Sequence of Proto-oncogene tyrosine-protein kinase Src (P12931 2-536 limits assumed): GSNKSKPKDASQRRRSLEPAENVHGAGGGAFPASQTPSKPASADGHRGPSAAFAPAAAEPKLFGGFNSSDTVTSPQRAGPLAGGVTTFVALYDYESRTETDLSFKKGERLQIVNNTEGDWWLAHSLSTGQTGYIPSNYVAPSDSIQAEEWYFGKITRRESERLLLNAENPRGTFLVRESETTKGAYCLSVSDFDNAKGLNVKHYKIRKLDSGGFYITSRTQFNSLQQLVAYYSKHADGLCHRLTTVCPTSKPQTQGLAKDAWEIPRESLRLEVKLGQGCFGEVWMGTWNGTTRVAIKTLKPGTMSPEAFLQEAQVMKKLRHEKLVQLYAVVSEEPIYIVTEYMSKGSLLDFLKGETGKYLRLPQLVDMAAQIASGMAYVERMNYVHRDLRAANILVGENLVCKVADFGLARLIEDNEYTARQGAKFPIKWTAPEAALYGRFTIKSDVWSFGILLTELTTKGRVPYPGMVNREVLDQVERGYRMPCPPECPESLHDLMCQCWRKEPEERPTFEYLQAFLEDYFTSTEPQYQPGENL
Description: Inhibition of Src (unknown origin) using [gamma-33P]ATP after 30 mins by radiometric assay

| Structure (SMILES) | inhibition [1] [%] | IC50 (DU-145) [µM] | IC50 [2] [µM] | IC50 [3] [µM] | IC50 [4] [µM] | IC50 [5] [µM] | IC50 [6] [µM] | also measured |
| --- | --- | --- | --- | --- | --- | --- | --- | --- |
| CCCCn1c(-c2cccc(Cl)c2)cn2c3c(=O)[nH]c(=O)n(C)c3nc12 | 22 |  |  |  |  |  |  |  |
| CCCCn1c(-c2ccccc2Cl)cn2c3c(=O)[nH]c(=O)n(C)c3nc12 |  | 3.18 | 2.93 | 18.2 | 4.94 | 1.62 | 1.14 |  |
| CCCCn1c(-c2ccc(F)cc2C)cn2c3c(=O)[nH]c(=O)n(C)c3nc12 |  | 9.59 | 8.69 | 14.9 | 9.46 | 6.02 | 4.04 | IC50 [7]: 0.617 µM |
| COc1ccccc1-n1c(-c2ccccc2)cn2c3c(=O)[nH]c(=O)n(C)c3nc12 |  |  |  |  |  |  |  | recovery at 2 h [8]: 71%; recovery at 2 h [9]: 76%; Papp B→A at 2 h [10]: 358 nm/s; Papp A→B at 2 h [11]: 323 nm/s |
| Cc1nc(Nc2ncc(C(=O)Nc3c(C)cccc3Cl)s2)cc(N2CCN(CCO)CC2)n1 [DASATINIB] |  | 0.0623 | 0.0217 | 2.25 | 0.121 | 0.0565 | 4.36 |  |
| CCCCn1c(-c2c(C)cccc2C)cn2c3c(=O)[nH]c(=O)n(C)c3nc12 | 49 |  |  |  |  |  |  |  |
| COc1ccccc1-n1c(-c2cccc(Cl)c2)cn2c3c(=O)[nH]c(=O)n(C)c3nc12 | 12 |  |  |  |  |  |  |  |
| COc1ccccc1-n1c(-c2cc(O)ccc2C)cn2c3c(=O)[nH]c(=O)n(C)c3nc12 |  | 2.7 | 1.76 | 20.2 | 2.01 | 9.16 | 32.6 | IC50 (Ephrin type-B receptor 4): 0.13 µM; recovery at 2 h [8]: 51%; GI50 (Hs-578T): 0.562 µM; IC50 [12]: 0.00092 µM; efflux ratio (in vitro): 7.3; IC50 [7]: 0.0013 µM; recovery at 2 h [9]: 74%; GI50 (K562): 0.309 µM; Papp B→A at 2 h [10]: 230 nm/s; GI50 (SNB-75): 0.128 µM; IC50 [13]: 0.00114 µM; Papp A→B at 2 h [11]: 31.3 nm/s |
| CCCCn1c(-c2ccccc2)cn2c3c(=O)[nH]c(=O)n(C)c3nc12 |  |  |  |  |  |  |  | recovery at 2 h [8]: 69%; recovery at 2 h [9]: 78%; Papp B→A at 2 h [10]: 425 nm/s; Papp A→B at 2 h [11]: 425 nm/s |
| CCCCCn1c(-c2ccccc2C)cn2c3c(=O)[nH]c(=O)n(C)c3nc12 |  | 6.97 | 5.58 | 4.98 | 5.88 | 2.72 | 2.57 |  |
| CCCCn1c(-c2ccccc2C(F)(F)F)cn2c3c(=O)[nH]c(=O)n(C)c3nc12 | 15 |  |  |  |  |  |  |  |
